From patent publication US7504519B2, “Derivatives of pyrazoline, procedure for obtaining them and use thereof as therapeutic agents” (Laboratorios Del Dr. Esteve, S.A., priority 2004, dated 2009)
Structures can show the parent of a compound that is named as a salt.

Assays:
rats = assay: Analgesia test on rats (carrageenan subplantar injection, thermal stimulus, Hargreaves method); type: in vivo; conditions: analgesic activity, rat, 2.5 mg/kg i.v., compound given 3 h after carrageenan; for % activity At 30 min.: 30 min after administration; for % activity At 120 min.: 120 min after administration
Description: Biological Activity Analgesia Test on Rats
The analgesic activity of the compounds of the invention is tested as described in the publication by K. Hargreaves et al., Pain, 32. 77-88. (1988).
Briefly, the rats are transferred to the experimentation laboratory, where they remain in groups of five in Makrolon cages with barred floors to prevent coprophagy. At the start of the experiment, water and food were removed and animals weighed and labelled appropriately.
Each rat receives by subplantar injection 0.1 ml of sterile saline solution in the rear left leg, followed by 0.1 ml 2% (weight/volume) carrageenan suspension in sterile saline solution in the rear right leg.
Three hours following the subplantar injections of carrageenan and vehicle, each rat was intravenously administered with compounds to be tested, dissolved in sterile saline serum, at a dose of 1 ml per kg of body weight. Then after administration of compounds, analgesic activity values were readed. For this purpose, rats were transferred to the methacrylate chambers of an analgesimeter with a glass floor. Once the period of acclimatisation in the chambers had elapsed (i.e., after 5 minutes), an infrared radiation lamp capable of producing thermal stimulation was placed under the rats' legs. Readings of analgesic activity were taken at 15, 30, 60 and 120 minutes following administration of the products or their vehicle.
The thermal stimulus, calibrated beforehand to 10 amperes, is applied to each of the rear legs at intervals of at least 1 minute. The response of the rats to the pain consists in raising the leg, thus avoiding contact with the floor.

Row | Molecule | melting point [°C] | % activity At 30 min. (rats) [%] | % activity At 120 min. (rats) [%]
1 | O=C(NS(=O)(=O)c1ccc(N2N=C(C(F)(F)F)CC2c2ccccc2)cc1)c1ccc(C(F)(F)F)cc1 (stereo not shown) (as salt: sodium) [Compound 22, N-(4-Trifluoromethylbenzoyl)-4-(4,5-dihydro-5-phenyl-3-trifluoromethyl-pyrazole-1-yl)-benzenesulphonamide] | > 280 | – | –
2 | CCC(=O)NS(=O)(=O)c1ccc(C2CC(C(F)(F)F)=NN2c2ccccc2)cc1 (stereo not shown) (as salt: sodium) [Compound 32, N-Propionyl-4-(4,5-dihydro-1-phenyl-3-trifluoromethyl-1H-pyrazole-5-yl)benzenesulphonamide] | > 280 | – | –
3 | CCCCOC(=O)NS(=O)(=O)c1ccc(C2CC(C(F)(F)F)=NN2c2ccccc2)cc1 (stereo not shown) (as salt: sodium) [Compound 37, N-Butoxycarbonyl-4-(4,5-dihydro-1-phenyl-3-trifluoromethyl-1H-pyrazole-5-yl)benzenesulphonamide] | 223 to 230 | – | –
4 | O=C(CO)NS(=O)(=O)c1ccc(N2N=C(C(F)(F)F)CC2c2ccccc2)cc1 (stereo not shown) [Compound 3, N-(2-Hydroxyacetyl)-4-(4,5-dihydro-5-phenyl-3-trifluoromethyl-pyrazole-1-yl)-benzenesulphonamide] | – | 41 | 40
5 | O=C(NS(=O)(=O)c1ccc(N2N=C(C(F)(F)F)CC2c2ccccc2)cc1)c1ccc(C(F)(F)F)cc1 (stereo not shown) [Compound 22, N-(4-Trifluoromethylbenzoyl)-4-(4,5-dihydro-5-phenyl-3-trifluoromethyl-pyrazole-1-yl)-benzenesulphonamide] | – | 72 | 76
6 | COC(=O)c1ccc(NS(=O)(=O)c2ccc(N3N=C(C(F)(F)F)CC3c3ccccc3)cc2)cc1 (stereo not shown) [Compound 25, 4-[4-(4,5-dihydro-5-phenyl-3-trifluoromethyl-pyrazole-1-yl)-benzenesulphonylamine] benzoic acid methylic ester] | – | 67 | 66
7 | COC(=O)NS(=O)(=O)c1ccc(C2CC(C(F)(F)F)=NN2c2ccccc2)cc1 (stereo not shown) [Compound 31, N-Methoxycarbonyl-4-(4,5-dihydro-1-phenyl-3-trifluoromethyl-1H-pyrazole-5-yl)benzenesulphonamide] | – | 76 | 49
8 | CCC(=O)NS(=O)(=O)c1ccc(C2CC(C(F)(F)F)=NN2c2ccccc2)cc1 (stereo not shown) [Compound 32, N-Propionyl-4-(4,5-dihydro-1-phenyl-3-trifluoromethyl-1H-pyrazole-5-yl)benzenesulphonamide] | – | 72 | 51
9 | CCCCOC(=O)NS(=O)(=O)c1ccc(C2CC(C(F)(F)F)=NN2c2ccccc2)cc1 (stereo not shown) [Compound 37, N-Butoxycarbonyl-4-(4,5-dihydro-1-phenyl-3-trifluoromethyl-1H-pyrazole-5-yl)benzenesulphonamide] | – | 68 | 75
10 | N-(4-Trifluoromethyl)benzoil-4-(4,5-dihydro-1-phenyl-3-trifluoromethyl-1H-pyrazole-5-yl)benzenesulphonamide [Compound 39] | – | 92 | 57
11 | N-Ethyloxicarbonyl-4-(4,5-dihydro-5-phenyl-3-trifluoromethyl-pyrazole-1-yl)-benzenesulphonamide [Compound 4] | – | 78 | 48
